Test results: ChEMBL document CHEMBL1201862, “PubChem BioAssay data set” (2004)
Activity calls are given as the source filed them.

Experiments:
[1] = cells
[2] = biological target: T1, Oxysterols receptor LXR-beta (Homo sapiens, UniProt P55055); assay type: functional, cell-based;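 also: Cell-based luminescence dose-response assay of agonist activity at LXR, run as a confirmatory counterscreen to a daf-12 agonist screen; HEK293 cells with Gal4-LXR fusion and GAL4-driven luciferase reporter; agonist potency from rising luciferase signal of a Gal4-LXR reporter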
T1 sequence (P55055 whole entry): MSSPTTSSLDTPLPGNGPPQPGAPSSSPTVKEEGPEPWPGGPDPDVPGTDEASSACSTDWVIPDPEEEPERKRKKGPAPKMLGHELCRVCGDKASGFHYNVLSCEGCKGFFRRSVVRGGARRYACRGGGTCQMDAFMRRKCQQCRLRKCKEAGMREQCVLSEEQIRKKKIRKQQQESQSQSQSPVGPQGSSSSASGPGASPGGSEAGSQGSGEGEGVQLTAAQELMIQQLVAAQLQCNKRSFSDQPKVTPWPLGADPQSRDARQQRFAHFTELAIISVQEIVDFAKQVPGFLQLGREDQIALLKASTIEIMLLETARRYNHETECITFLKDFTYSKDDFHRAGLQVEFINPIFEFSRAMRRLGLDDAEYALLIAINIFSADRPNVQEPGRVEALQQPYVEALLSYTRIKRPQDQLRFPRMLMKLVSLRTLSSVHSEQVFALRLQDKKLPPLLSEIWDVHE

[3] = cells; assay type: functional, cell-based
[4] = cells; assay type: functional, cell-based; remark: listed apart in the source
[5] = biological target: Beta-galactosidase (Escherichia coli, UniProt Q8VNN2); experiment: Dose response counterscreen for EBI2 assay utilizing the enzyme, b-galactosidase.; assay type: functional
Chain of Beta-galactosidase (Q8VNN2 whole entry): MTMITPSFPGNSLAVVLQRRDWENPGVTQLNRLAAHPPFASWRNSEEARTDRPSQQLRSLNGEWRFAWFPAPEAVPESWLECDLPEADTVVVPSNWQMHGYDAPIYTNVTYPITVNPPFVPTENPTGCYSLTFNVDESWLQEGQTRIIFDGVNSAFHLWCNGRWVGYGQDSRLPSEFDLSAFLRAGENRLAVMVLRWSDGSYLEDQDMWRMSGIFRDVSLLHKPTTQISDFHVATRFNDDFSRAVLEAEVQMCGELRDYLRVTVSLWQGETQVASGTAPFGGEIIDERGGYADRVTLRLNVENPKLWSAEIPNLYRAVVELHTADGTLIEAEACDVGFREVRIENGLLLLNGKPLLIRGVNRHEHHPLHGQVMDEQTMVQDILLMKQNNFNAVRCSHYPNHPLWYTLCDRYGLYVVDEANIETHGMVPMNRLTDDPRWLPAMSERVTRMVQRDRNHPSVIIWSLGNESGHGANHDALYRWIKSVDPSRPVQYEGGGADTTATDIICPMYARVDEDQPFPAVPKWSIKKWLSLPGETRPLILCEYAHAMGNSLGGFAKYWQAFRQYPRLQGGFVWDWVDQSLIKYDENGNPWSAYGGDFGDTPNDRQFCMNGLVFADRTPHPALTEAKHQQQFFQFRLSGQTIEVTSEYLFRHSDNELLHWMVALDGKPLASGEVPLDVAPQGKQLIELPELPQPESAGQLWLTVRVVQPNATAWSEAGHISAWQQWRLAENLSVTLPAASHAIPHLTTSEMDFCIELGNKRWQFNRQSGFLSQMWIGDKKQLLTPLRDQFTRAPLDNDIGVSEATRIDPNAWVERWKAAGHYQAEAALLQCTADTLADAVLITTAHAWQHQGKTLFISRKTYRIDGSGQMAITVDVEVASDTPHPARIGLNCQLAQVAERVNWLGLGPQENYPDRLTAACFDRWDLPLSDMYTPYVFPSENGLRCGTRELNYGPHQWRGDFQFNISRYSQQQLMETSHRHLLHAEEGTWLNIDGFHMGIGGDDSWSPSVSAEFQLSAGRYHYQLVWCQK

[6] = biological target: T2, Replicative DNA helicase DnaB (Mycobacterium tuberculosis, UniProt P9WMR3); experiment: DnaB intein splicing inhibitors, dose response, biochemical, cell-free fluorescence (AID 449749); assay type: functional
T2 sequence (P9WMR3 whole entry): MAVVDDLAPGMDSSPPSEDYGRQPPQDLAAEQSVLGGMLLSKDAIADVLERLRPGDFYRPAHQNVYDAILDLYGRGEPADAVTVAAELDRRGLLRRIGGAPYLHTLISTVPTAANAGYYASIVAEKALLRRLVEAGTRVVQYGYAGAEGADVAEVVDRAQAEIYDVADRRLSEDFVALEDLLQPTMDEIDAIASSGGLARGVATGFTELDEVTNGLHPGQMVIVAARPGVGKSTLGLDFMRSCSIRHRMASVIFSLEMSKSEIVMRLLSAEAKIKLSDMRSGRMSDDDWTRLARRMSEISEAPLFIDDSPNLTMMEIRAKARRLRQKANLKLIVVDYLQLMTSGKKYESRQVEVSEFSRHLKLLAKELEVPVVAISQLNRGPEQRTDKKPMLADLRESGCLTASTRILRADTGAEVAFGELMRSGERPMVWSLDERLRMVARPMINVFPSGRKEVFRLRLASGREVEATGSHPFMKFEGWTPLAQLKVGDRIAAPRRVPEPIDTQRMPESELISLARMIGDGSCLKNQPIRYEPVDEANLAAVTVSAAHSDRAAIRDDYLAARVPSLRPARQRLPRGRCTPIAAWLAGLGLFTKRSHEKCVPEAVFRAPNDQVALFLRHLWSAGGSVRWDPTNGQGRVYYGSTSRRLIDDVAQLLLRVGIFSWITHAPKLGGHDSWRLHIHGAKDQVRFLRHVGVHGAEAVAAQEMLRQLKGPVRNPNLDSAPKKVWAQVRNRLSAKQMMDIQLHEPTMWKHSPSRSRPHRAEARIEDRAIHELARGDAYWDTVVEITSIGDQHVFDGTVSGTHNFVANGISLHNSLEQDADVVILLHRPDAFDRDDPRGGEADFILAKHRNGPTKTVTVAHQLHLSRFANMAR

[7] = biological target: T3, Luciferin 4-monooxygenase (Photinus pyralis, UniProt P08659); experiment: inhibition of purified Photinus pyralis luciferase – biochemical, luminescence, dose response (AID 1891)
T3 sequence (P08659 whole entry): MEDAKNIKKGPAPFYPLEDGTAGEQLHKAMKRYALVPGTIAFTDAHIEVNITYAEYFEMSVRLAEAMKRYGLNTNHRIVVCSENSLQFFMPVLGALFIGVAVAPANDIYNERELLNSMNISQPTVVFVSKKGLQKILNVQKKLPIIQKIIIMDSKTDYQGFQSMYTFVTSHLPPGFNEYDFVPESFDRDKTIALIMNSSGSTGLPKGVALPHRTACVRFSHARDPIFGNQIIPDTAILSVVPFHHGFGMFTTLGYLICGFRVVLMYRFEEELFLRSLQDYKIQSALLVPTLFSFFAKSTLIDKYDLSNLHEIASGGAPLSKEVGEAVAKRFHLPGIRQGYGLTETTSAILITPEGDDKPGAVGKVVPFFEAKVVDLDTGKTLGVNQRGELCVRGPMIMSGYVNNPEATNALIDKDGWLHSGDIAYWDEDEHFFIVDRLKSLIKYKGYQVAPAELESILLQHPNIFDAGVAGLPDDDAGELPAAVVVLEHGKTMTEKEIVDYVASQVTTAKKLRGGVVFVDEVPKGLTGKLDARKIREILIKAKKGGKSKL

[8] = biological target: T4, Mannose-6-phosphate isomerase (Homo sapiens, UniProt P34949); experiment: MPI inhibition at elevated mannose 6-phosphate – biochemical, fluorescence intensity, high mannose 6-phosphate, primary screen (AID 1220)
T4 sequence (P34949 whole entry): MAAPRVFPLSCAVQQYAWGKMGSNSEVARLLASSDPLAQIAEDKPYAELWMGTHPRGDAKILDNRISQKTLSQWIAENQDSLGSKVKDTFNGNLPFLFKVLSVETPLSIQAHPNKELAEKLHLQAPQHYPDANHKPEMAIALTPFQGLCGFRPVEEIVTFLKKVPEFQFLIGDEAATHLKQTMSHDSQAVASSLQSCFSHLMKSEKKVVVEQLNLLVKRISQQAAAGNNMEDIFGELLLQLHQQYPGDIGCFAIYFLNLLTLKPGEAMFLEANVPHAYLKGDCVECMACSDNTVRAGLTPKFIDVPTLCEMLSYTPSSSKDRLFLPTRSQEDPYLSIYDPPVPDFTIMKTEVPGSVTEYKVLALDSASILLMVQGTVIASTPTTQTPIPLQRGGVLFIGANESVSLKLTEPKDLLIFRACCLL

[9] = microbe, parasite or virus in culture; assay type: functional; conditions: Mycobacterium tuberculosis
[10] = biological target: T5, Protein RecA (Mycobacterium tuberculosis, UniProt P9WHJ3); experiment: Fluorescence Cell-Free Homogeneous Dose Retest to Identify Inhibitors of RecA-Intein Splicing Activity. [Related pubchem assays (depositor defined):AID2097, AID2223, AID489010, AID492950]; assay type: functional
T5 sequence (P9WHJ3 whole entry): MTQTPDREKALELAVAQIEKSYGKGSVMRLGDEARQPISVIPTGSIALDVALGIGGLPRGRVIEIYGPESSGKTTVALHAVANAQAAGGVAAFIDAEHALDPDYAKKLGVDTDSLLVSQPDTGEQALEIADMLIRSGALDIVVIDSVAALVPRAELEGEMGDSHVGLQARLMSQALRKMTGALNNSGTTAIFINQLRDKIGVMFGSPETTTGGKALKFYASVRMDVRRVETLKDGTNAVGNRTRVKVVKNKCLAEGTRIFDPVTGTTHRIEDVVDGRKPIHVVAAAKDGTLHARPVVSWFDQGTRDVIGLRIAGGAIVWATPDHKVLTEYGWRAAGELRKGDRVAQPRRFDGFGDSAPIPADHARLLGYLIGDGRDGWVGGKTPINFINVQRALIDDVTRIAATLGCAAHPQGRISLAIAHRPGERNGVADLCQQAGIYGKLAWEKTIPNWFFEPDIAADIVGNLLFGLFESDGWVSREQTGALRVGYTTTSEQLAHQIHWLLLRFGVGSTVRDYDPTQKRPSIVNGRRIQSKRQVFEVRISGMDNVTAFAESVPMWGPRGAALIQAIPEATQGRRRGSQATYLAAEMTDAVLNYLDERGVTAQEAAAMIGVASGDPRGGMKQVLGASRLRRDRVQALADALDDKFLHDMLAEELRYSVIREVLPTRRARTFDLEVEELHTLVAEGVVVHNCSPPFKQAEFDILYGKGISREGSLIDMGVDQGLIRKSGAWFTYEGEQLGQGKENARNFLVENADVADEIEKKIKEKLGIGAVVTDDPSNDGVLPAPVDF

[11] = biological target: T3, Luciferin 4-monooxygenase; experiment: Counter Screen for Luciferase-based Assay Positives. [Related pubchem assays: 620, 618, 411 ]
[12] = Luminescence Cell-Based Dose Response HTS to Identify Inhibitors of 5'UTR Stem-Loop Driven Prion Protein mRNA Translation in H4 Neuroglioblastoma Cells. [Related pubchem assays: 1827 (Project Summary), 1813 (Primary HTS)]; assay type: functional
[13] = tested on: HT-1080; experiment: HT1080 cell viability loss – fluorescence readout (AID 620); assay type: functional, cell-based; conditions: Homo sapiens
[14] = Luminescence Cell-Based Dose Confirmation HTS to Identify Inhibitors of Platelet Dense Granule Release. [Related pubchem assays: 1663 (Primary HTS), 1678 (Summary of Project)]; assay type: functional
[15] = biological target: T6, Caspase-6 (Homo sapiens, UniProt P55212); experiment: inhibition of CASP6 peptide cleavage – biochemical, VEID-R110 fluorescence, cherry-pick, dose response (AID 720632)
T6 sequence (P55212 whole entry): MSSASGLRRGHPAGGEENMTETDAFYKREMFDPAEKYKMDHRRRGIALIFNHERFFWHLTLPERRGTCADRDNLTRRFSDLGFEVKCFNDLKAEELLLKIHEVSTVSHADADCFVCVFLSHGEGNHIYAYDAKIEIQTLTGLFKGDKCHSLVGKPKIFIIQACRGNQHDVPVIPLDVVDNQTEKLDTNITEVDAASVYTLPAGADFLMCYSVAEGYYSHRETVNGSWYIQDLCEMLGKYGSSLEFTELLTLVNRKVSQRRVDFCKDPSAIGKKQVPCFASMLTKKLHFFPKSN

SMILES: Fc1ccccc1-c1nc(-c2ccccc2)no1
- EC50 [1]: > 67.5 µM (inactive)
- EC50 [2]: > 67.5 µM (inactive)

SMILES: Oc1cc(C=NNc2ccccc2)nc(O)n1
- EC50 [3]: > 29.9 µM (inactive)
- IC50 [4]: > 29.9 µM (inactive)

SMILES: O=C(/C=C/c1ccc(Cl)cc1)N1CCN(c2ccccc2[N+](=O)[O-])CC1
- IC50 [5]: > 80 µM (inactive)

SMILES: Cc1cc(C)c2c(=O)n3c(nc2c1)C(CC(C)C)NC(=O)c1cc2ccccc2cc1-3 (configuration not stated)
- IC50 [5]: > 80 µM (inactive)

SMILES: CN(Cc1ccc(F)cc1)C(=O)COc1ccc2ccccc2c1
- IC50 [5]: > 80 µM (inactive)

SMILES: OC1=C(/C=N/c2ccc3c(c2)OCO3)CCc2ccccc21
- AC50 [6]: > 380 µM (inactive)
- EC50 [7]: 0.871 µM (active)
- IC50 [8]: 0.829 µM (active)
- CC50 [9]: > 40 µM (active)
- EC50 [10]: 0.43 µM (active)
- EC50 [11]: 2.31 µM (active)
- EC50 [12]: 7.7 µM (active)
- EC50 [13]: > 50 µM (not active)
- EC50 [14]: 7.07 µM (active)

SMILES: CC1CCCCC1NC(=O)COC(=O)c1ccc([N+](=O)[O-])o1 (configuration not stated)
- AC50 [15]: 43.8 µM (active)
